Results on 5 molecules are retold here after patent publication US20070111990A1, “3-Aza-1-oxa-dibenzo[e,h]azulenes for the treatment of central nervous system diseases and disorders” (GLAXOSMITHKLINE ISTRAZIVACKI CENTAR ZAGREB D.O.O., priority 2003, published 2007).

Experiment [1] has as its target T1, 5-HT2A receptor (Homo sapiens, UniProt P28223).
T1 construct: expressed in transfected cells; host or cells: CHO-K1 (alternatively human cortex tissue)
Briefly: radioligand binding assay for 5-HT2A receptor ([3H]-ketanserin). As to conditions: competitive binding; for IC50: human cortex or recombinant 5-HT2A in CHO-K1, read-out: binding affinity to 5-HT2A serotonin receptor expressed as IC50 value; for Ki: human cortex or recombinant 5-HT2A in CHO-K1, read-out: binding affinity to 5-HT2A serotonin receptor, Ki value. How it is done:
(§1) The effect of the compounds of the present invention on the neurochemical steady state was determined by in vitro investigations such as a radionuclide-marked radioligand binding assay for 5-HT2A (Bonhaus D. W. Br. J. Pharmacol. 1995, 115:622; Saucier C. J. Neurochem. 1997, 68:1998) and 5-HT2C receptors (Wolf W. A. J. Neurochem. 1997, 69:1449), in vitro binding assay for σ1 receptor (Thomson W. and Donn R. Arthritis Res. 2002, 4: 302-306) and by in vivo investigations in a tail suspension test (Vogel H. G. and Vogel W. H. Drug Discovery and Evaluation Pharmacological Assays, Springer 1997, 304), in amphethamine-induced hyperlocomotion in mice (Millan M. J. et al, 1998 J Pharmacol. Exp. Ther. 287: 167-186), in a forced swim test in mice (Porsolt R. D. et al. Arch. Int. Pharmacodyn. 1977, 229:327-336), in meta-chlorophenyl piperazine (m-CPP) test on rats (Drug Dev. Res. 1989, 18:119-144), and in apomorphine, tryptamine, norepinephrine (ATN) test in rats (Arch. Int. Pharmacodyn. 1977, 227:238-253).
(§2) In Vitro Method for Determining Affinity for Binding to 5-HT2A and 5-HT2C Receptors
(§3) A small concentration of a radioligand having a great affinity for binding to a receptor was incubated with a tissue sample enriched with a certain receptor (1-5 mg of tissue) in a buffered medium (0.2-5 mL). Recombinant human HT2A and HT2C receptors were expressed in CHO-K1 or COS-7 cells and were also used for competitive binding. During incubation the radioligand bound to the receptor. When a binding balance was achieved, the receptors to which the radioligand was bound were separated from those to which said ligand was not bound, and the radioactivity of the receptor/radioligand complex was measured. The interaction of the tested compounds with receptors was tested in competitive binding experiments. Various concentrations of tested compounds were added to the incubation mixture containing a prepared tissue enriched with corresponding receptors and the radioligand. The radioligand binding was inhibited by the test compounds proportionally to the affinity of a certain compound for the receptor and to the concentration of the compound.
The radioligand used for the determination of binding to ^5-HT2A receptor was [^3H]-ketanserin and the tissue used was human cortex or recombinant 5-HT2A receptor expressed in CHO—K1.

Experiment [2] deals with T2, 5-HT2C receptor (Homo sapiens, UniProt P28335).
T2 construct: expressed in transfected cells; host or cells: CHO-K1 cells (alternatively choroid plexus tissue)
T2 sequence (P28335 33-458): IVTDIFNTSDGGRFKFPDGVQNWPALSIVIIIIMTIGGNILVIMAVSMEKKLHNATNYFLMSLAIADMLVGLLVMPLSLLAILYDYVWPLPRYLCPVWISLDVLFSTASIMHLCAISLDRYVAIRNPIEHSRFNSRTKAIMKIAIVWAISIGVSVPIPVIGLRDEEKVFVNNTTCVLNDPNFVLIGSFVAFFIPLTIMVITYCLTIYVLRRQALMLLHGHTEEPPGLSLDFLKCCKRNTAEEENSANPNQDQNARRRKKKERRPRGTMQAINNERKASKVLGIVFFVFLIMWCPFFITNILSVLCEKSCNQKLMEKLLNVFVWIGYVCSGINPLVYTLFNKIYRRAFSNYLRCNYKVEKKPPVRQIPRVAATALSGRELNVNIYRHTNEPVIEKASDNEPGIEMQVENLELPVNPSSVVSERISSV
Nature of the experiment: radioligand binding assay for 5-HT2C receptor ([3H]-mesulergine). As to conditions: competitive binding; for IC50: choroid plexus or recombinant 5-HT2C in CHO-K1, read-out: binding affinity to 5-HT2C serotonin receptor expressed as IC50 value; for Ki: choroid plexus or recombinant 5-HT2C in CHO-K1, read-out: binding affinity to 5-HT2C serotonin receptor, Ki value. How it is done:
as §1, §2, §3
The radioligand used for the determination of binding to 5-HT2C receptor was [^3H]-mesulergine and the tissue used was choroid plexus or recombinant 5-HT2C receptor expressed in CHO—K1 cells.

T1 sequence (P28223 whole entry): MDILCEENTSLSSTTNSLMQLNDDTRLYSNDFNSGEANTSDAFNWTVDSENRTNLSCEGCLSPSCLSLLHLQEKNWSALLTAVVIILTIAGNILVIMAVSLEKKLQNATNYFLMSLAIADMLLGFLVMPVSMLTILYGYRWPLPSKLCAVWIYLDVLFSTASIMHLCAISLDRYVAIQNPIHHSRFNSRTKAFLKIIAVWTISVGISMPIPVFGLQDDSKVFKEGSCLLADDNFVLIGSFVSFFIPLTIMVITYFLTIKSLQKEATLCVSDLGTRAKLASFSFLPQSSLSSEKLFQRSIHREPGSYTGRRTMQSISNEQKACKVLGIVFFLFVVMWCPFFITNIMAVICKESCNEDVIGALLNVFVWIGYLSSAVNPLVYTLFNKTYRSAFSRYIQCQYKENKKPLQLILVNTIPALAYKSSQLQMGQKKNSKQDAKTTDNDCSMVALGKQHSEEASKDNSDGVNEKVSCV

What is called IC50 is the point on the concentration scale where inhibition reaches its midpoint. The term Ki denotes a dissociation constant, usually derived from enzyme kinetics or from competition with a known ligand. Turning to `c1ccc2c(c1)Sc1ccccc1-c1ocnc1-2` [1-oxa-8-thia-3-aza-dibenzo[e,h]azulene], in experiment [1], the IC50 is under 200 nM and the Ki is under 100 nM. Also, in experiment [2], the IC50 was under 200 nM and the inhibition constant Ki is under 100 nM.
In the case of `Cc1nc2c(o1)-c1ccccc1Oc1ccc(Cl)cc1-2` [5-chloro-2-methyl-1,8-dioxa-3-aza-dibenzo[e,h]azulene], in experiment [1], the IC50 is under 200 nM and the Ki was under 100 nM. Besides, in experiment [2], the concentration for half-maximal inhibition (IC50) is under 200 nM and the Ki is under 100 nM.
For `CN(C)CCOCc1nc2c(o1)-c1ccccc1Sc1ccc(Cl)cc1-2` [[2-(5-chloro-1-oxa-8-thia-3-aza-dibenzo[e,h]azulen-2-ylmethoxy)-ethyl]-dimethyl-amine], in experiment [1], the 50% inhibitory concentration (IC50) was under 200 nM and the Ki is under 100 nM. In experiment [2], the IC50 is under 200 nM and the Ki is under 100 nM.
Turning to `CN(C)CCOCc1nc2c(o1)-c1cc(Cl)ccc1Sc1ccccc1-2` [[2-(11-chloro-1-oxa-8-thia-3-aza-dibenzo[e,h]azulen-2-ylmethoxy)-ethyl]-dimethyl-amine], in experiment [1], the half-inhibitory concentration (IC50) is under 200 nM and the Ki is under 100 nM. Also, in experiment [2], the 50% inhibitory concentration (IC50) is under 200 nM and the inhibition constant (Ki) was under 100 nM.
As for `CN(C)CCOCc1nc2c(o1)-c1ccccc1Sc1ccccc1-2` [dimethyl-[2-(1-oxa-8-thia-3-aza-dibenzo[e,h]azulen-2-ylmethoxy)-ethyl]-amine], in experiment [1], the IC50 was under 200 nM and the inhibition constant (Ki) was under 100 nM. Moreover, in experiment [2], the IC50 is under 200 nM and the inhibitory constant (Ki) is under 100 nM.
